Test results published in ChEMBL document CHEMBL3872257, “Multitarget drug design strategy against Alzheimer's disease: Homoisoflavonoid Mannich base derivatives serve as acetylcholinesterase and monoamine oxidase B dual inhibitors with multifunctional properties” (Bioorg Med Chem, 2017).
Active and inactive are the calls of the source. No cut-off for these calls is given here.

What was measured:
Acetylcholinesterase = Acetylcholinesterase (Electrophorus electricus, UniProt O42275); test: Inhibition of Electrophorus electricus AChE using acetylthiocholine iodide as substrate measured after 15 mins by Ellman's method
Chain of Acetylcholinesterase (O42275 whole entry): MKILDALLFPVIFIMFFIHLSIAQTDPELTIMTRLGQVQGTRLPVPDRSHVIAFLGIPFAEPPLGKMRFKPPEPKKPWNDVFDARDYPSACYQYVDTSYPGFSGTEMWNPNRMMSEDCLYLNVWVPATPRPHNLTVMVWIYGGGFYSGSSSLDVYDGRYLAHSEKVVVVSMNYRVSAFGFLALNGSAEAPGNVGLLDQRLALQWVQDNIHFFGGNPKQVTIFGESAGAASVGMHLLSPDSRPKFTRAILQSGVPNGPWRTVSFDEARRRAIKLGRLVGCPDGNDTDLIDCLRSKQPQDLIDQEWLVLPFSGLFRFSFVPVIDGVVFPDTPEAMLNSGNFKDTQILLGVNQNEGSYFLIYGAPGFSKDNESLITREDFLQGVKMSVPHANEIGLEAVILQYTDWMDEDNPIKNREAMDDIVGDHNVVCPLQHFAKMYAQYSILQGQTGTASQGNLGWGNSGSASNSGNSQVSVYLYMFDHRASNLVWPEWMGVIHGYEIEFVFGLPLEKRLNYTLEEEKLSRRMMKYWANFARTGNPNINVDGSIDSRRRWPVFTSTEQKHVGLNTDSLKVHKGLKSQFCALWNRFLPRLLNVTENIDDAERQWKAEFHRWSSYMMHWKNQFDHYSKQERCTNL

[1] = biological target: Butyrylcholinesterase (Rattus norvegicus) (UniProt Q9JKC1); test: Inhibition of rat serum BuChE at 50 uM measured after 15 mins by Ellman's method relative to control
Chain of Butyrylcholinesterase (Rattus norvegicus) (Q9JKC1 as listed by the source): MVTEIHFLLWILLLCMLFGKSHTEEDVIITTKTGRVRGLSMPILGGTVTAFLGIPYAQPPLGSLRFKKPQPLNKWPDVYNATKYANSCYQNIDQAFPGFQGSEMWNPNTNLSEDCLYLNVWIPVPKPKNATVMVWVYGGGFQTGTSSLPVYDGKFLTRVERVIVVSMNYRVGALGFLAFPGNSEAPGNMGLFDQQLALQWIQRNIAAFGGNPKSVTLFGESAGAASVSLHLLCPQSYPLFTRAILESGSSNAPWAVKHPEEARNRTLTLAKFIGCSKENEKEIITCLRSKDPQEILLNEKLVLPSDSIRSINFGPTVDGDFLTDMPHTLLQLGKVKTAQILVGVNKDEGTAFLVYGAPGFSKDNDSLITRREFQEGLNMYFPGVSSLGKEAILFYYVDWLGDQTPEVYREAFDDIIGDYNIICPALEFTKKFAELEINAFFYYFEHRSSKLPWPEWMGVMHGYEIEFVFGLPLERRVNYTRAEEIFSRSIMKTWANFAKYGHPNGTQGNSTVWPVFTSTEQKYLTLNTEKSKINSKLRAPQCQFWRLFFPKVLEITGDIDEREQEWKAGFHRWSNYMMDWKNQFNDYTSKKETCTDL

[2] = Antioxidant activity assessed as trolox equivalent of […]-induced radical scavenging activity preincubated for 15 mins followed by AAPH addition measured every minute for 120 mins by ORAC fluorescein assay; format: functional
[3] = biological target: Amyloid-beta precursor protein (Homo sapiens) (UniProt P05067); test: Inhibition of self-mediated aggregation of amyloid beta (1 to 42 residues) (unknown origin) at 25 uM incubated for 24 hrs by Thioflavin T fluorescence assay relative to control
Chain of Amyloid-beta precursor protein (Homo sapiens) (P05067 whole entry, the tested form may be a part): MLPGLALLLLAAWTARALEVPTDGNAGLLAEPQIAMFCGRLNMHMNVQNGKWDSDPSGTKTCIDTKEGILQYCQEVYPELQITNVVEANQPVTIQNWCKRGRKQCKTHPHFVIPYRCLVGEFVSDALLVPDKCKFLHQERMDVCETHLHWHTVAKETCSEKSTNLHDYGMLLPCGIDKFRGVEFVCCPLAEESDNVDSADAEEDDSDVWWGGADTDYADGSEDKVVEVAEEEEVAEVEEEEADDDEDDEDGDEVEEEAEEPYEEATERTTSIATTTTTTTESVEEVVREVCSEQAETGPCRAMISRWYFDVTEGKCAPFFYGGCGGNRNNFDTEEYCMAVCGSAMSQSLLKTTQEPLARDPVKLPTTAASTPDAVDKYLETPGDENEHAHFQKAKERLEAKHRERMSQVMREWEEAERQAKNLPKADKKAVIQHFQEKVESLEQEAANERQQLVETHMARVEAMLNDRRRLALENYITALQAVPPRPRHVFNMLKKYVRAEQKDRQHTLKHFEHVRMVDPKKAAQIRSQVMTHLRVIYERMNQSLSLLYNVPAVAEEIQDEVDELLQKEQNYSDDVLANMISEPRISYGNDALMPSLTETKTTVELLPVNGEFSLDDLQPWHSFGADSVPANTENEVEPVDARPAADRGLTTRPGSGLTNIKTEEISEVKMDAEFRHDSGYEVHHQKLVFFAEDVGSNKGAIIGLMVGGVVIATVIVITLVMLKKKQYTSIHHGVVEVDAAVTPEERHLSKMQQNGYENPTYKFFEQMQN

[4] = Inhibition of copper-mediated aggregation of amyloid beta (1 to 42 residues) (unknown origin) at 25 uM incubated for 24 hrs by thioflavin-T fluorescence assay relative to control; format: physicochemical
[5] = biological target: T1, Amine oxidase [flavin-containing] A (Homo sapiens, UniProt P21397); test: Inhibition of human recombinant MAO-A using kynuramine as substrate at 20 uM measured after 30 mins by fluorescence assay relative to control; conditions: 0.5 h
T1 sequence (P21397 whole entry): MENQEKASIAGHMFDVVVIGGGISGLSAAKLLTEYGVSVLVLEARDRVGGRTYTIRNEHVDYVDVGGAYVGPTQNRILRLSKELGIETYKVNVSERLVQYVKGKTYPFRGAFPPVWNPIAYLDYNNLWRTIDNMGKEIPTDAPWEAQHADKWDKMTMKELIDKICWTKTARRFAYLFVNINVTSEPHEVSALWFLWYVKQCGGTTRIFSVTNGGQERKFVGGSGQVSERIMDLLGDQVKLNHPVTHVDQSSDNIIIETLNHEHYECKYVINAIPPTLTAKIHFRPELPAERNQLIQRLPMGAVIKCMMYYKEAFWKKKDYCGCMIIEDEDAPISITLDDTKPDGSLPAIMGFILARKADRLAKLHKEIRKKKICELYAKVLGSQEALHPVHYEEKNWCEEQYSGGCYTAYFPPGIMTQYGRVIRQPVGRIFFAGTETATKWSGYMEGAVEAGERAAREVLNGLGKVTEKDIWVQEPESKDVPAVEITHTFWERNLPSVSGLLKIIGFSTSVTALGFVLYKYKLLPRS

[6] = biological target: T2, Amine oxidase [flavin-containing] B (Homo sapiens, UniProt P27338); test: Inhibition of human recombinant MAO-B using kynuramine as substrate at 20 uM measured after 30 mins by fluorescence assay relative to control; conditions: 0.5 h
T2 sequence (P27338 whole entry): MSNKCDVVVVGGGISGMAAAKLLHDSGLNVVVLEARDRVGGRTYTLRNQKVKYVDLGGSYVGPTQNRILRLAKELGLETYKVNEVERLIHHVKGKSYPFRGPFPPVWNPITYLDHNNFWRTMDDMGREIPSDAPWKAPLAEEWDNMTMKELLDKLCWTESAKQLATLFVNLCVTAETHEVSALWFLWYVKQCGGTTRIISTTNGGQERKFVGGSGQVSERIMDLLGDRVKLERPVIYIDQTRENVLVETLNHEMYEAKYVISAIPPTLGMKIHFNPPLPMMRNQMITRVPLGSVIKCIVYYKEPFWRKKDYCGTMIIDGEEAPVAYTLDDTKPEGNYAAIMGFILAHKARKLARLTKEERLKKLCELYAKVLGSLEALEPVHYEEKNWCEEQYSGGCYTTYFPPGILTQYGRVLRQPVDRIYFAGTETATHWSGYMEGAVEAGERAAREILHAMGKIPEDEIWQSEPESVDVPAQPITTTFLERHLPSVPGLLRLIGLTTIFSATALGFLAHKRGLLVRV

[7] = biological target: T2, Amine oxidase [flavin-containing] B
Description: Inhibition of human recombinant MAO-B using kynuramine as substrate measured after 30 mins by fluorescence assay

Homo sapiens = species on record: Homo sapiens; test: Selectivity index, ratio of IC50 for human recombinant MAO-A to IC50 for human recombinant MAO-B
[8] = biological target: Acetylcholinesterase (Electrophorus electricus) (UniProt O42275); test: Mixed-type inhibition of […] AChE preincubated for 15 mins followed by addition of acetylthiocholine iodide as substrate in varying concentrations by Lineweaver-Burk reciprocal plot analysis
Chain of Acetylcholinesterase (Electrophorus electricus) (O42275 24-633 limits assumed): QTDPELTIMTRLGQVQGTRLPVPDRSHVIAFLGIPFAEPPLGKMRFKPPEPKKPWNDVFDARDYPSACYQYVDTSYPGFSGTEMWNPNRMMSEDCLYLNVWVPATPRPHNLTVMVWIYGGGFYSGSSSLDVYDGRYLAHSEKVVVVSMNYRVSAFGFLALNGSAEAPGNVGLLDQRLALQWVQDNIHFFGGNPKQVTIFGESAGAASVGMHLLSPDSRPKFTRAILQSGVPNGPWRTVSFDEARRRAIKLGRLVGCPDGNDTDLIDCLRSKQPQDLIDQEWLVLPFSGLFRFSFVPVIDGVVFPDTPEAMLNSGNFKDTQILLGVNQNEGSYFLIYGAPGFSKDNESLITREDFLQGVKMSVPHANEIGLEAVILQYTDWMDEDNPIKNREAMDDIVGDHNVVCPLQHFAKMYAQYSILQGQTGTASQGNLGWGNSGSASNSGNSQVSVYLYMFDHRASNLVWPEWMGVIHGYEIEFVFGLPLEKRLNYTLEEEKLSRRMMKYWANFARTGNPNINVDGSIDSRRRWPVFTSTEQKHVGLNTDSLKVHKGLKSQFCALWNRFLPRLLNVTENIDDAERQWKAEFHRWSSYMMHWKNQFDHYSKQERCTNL

[9] = Metal chelating activity assessed as iron-compound complex formation at 37.5 uM in presence of FeSO4 measured after 30 mins by UV-vis spectrometry; format: physicochemical; conditions: 0.5 h
[10] = Metal chelating activity assessed as aluminium-compound complex formation at 37.5 uM in presence of AlCl3 measured after 30 mins by UV-vis spectrometry; format: physicochemical; conditions: 0.5 h
[11] = Metal chelating activity assessed as copper-compound complex formation at 37.5 uM in presence of CuCl2 measured after 30 mins by UV-vis spectrometry; format: physicochemical; conditions: 0.5 h
Rattus norvegicus = species on record: Rattus norvegicus; test: Cytotoxicity against rat PC12 cells assessed as effect on cell viability at 1 to 10 uM measured after 48 hrs by MTT assay; format: toxicity, cell-based; conditions: pc-12, 48 h
[12] = Cytotoxicity against rat PC12 cells assessed as cell viability at 100 uM measured after 48 hrs by MTT assay relative to control; format: toxicity, PC-12; conditions: read-out: Activity
[13] = Permeability of the compound at 100 ug/ml after 18 hrs by PAMPA assay; format: ADME; conditions: read-out: permeability
[14] = Metal chelating activity assessed as zinc-compound complex formation at 37.5 uM in presence of ZnCl2 measured after 30 mins by UV-vis spectrometry; format: physicochemical; conditions: 0.5 h

Structure (SMILES) | IC50 (Acetylcholinesterase) [µM] | inhibition [1] [%] | Activity [2] [equiv] | inhibition [3] [%] | inhibition (INH) [4] [%] | inhibition [5] [%] | inhibition at 20 µM [6] [%] | IC50 [7] [nM] | Ratio IC50 (Homo sapiens) | inhibition [8] | Activity [9] | Activity [10] | Activity [11] | Activity (Rattus norvegicus) | viability at 48 h, 100 µM [12] [%] | Papp at 18 h, 100 ug/ml [13] [×10⁻⁶ cm/s] | Activity [14]
COc1ccccc1CN(C)Cc1c(O)cccc1/C=C1\COc2cc(OC)c(OC)cc2C1=O | 33.3 | 16 | 1.69 | 35.6 | 54.9 | 9.8 | 43.9 |  |  |  |  |  |  |  |  |  | 
COc1ccccc1CN(C)Cc1ccc(/C=C2\COc3cc(OC)c(OC)cc3C2=O)cc1O | 16.4 | 11.2 | 1.78 | 37.8 | 67.8 | 12.3 |  | 1030 | > 19.4 |  |  |  |  |  |  |  | 
COc1cc(/C=C/C(=O)CC(=O)/C=C/c2ccc(O)c(OC)c2)ccc1O [CURCUMIN] |  |  |  |  | 67.2 |  |  |  |  |  |  |  |  |  |  |  | 
COc1cc2c(cc1OC)C(=O)/C(=C/c1cccc(O)c1CN1CCN(C)CC1)CO2 | 84.1 | < 5 | 1.83 | 26.8 | 36.3 | 6.8 | 29.8 |  |  |  |  |  |  |  |  |  | 
COc1cc2c(cc1OC)C(=O)/C(=C/c1ccc(CN3CCCCC3)c(O)c1)CO2 | 0.00249 | 19.8 | 2.25 | 39.3 | 47 | 24.6 |  | 1740 | > 11.5 | Active | Active | Active | Active | Non-Toxic | 63.4 | 10.4 | 
CCN(Cc1ccccc1)Cc1ccc(/C=C2\COc3cc(OC)c(OC)cc3C2=O)cc1O | 0.364 | < 5 | 1.13 | 32.7 | 49.9 | 15 |  | 1720 | > 11.6 |  |  |  |  |  |  |  | 
CCN(Cc1ccc(/C=C2\COc3cc(OC)c(OC)cc3C2=O)cc1O)Cc1ccccc1N(C)C | 18.1 | 44.6 | 0.97 | 59.6 | 79.9 | 28.3 |  | 1340 | > 14.9 |  | Active | Active | Active |  |  | 10.5 | Active
COc1cc2c(cc1OC)C(=O)/C(=C/c1ccc(CN(C)Cc3ccccc3)c(O)c1)CO2 | 1.99 | < 5 | 1.57 | 7.7 | 42.6 | 3.4 |  | 1150 | > 17.4 |  |  |  |  |  |  |  | 
COc1cc2c(cc1OC)C(=O)/C(=C/c1cccc(O)c1)CO2 | 59.3 | 6.18 | 1.73 | 20.1 | 30.3 | 21.9 |  | 190 | > 105 |  |  |  |  |  |  |  | 
COc1cc2c(cc1OC)C(=O)/C(=C/c1ccc(CN3CCOCC3)c(O)c1)CO2 | 1.29 | < 5 | 1.35 | 28.3 | 38.7 | 23 |  | 1010 | > 19.8 |  |  |  |  |  |  |  | 
COc1cc2c(cc1OC)C(=O)/C(=C/c1cccc(O)c1CN1CCOCC1)CO2 | 85.9 | 7.85 | 1.52 | 7.8 | 32.4 | 2.1 | 18.6 |  |  |  |  |  |  |  |  |  | 
COc1cc2c(cc1OC)C(=O)/C(=C/c1ccc(CN3CCCC3)c(O)c1)CO2 | 0.362 | 24.1 | 1.65 | 37.3 | 36.5 | 16.4 |  | 722 | > 27.7 |  |  |  |  |  |  | 11.1 | 
CCN(Cc1ccccc1)Cc1c(O)cccc1/C=C1\COc2cc(OC)c(OC)cc2C1=O | 172 | < 5 | 1.34 | 8 | 28 | 9.8 | 38.1 |  |  |  |  |  |  |  |  |  | 
COc1cc2c(cc1OC)C(=O)/C(=C/c1ccc(CN3CCN(C)CC3)c(O)c1)CO2 | 6.26 | < 5 | 2.11 | 41.9 | 40.5 | 40.5 |  | 915 | > 21.9 |  |  |  |  |  |  |  | 
COc1cc2c(cc1OC)C(=O)/C(=C/c1ccc(CN(C)C)c(O)c1)CO2 | 0.536 | < 5 | 1.71 | 35.2 | 42.2 | 8.2 |  | 882 | > 22.7 |  |  |  |  |  |  |  | 
CCN(CC)Cc1c(O)cccc1/C=C1\COc2cc(OC)c(OC)cc2C1=O | 37.4 | 6.31 | 2.05 | 20.1 | 29.1 | 8.5 | 36.7 |  |  |  |  |  |  |  |  |  | 
CCN(CC)Cc1ccc(/C=C2\COc3cc(OC)c(OC)cc3C2=O)cc1O | 0.0068 | 7.72 | 1.97 | 21.2 | 40.6 | 9.5 |  | 2430 | > 8.2 |  |  |  |  |  |  |  | 
CCN(Cc1ccc(/C=C2\COc3cc(OC)c(OC)cc3C2=O)cc1O)Cc1ccccc1OC | 15.7 | 22.7 | 1.8 | 44 | 65.8 | 14 |  | 1500 | > 13.3 |  |  |  |  |  |  | 6.05 | 
COc1cc2c(cc1OC)C(=O)/C(=C/c1ccc(O)c(CN3CCCCC3)c1)CO2 | 0.928 | < 5 | 2.32 | 41.4 | 49 | 17 |  | 14000 | > 1.4 |  |  |  |  |  |  |  | 
